In patent US20240158383A1, “RIBONUCLEOTIDE REDUCTASE (RNR) INHIBITORS AND USES THEREOF” (Boundless Bio, Inc., priority 2021, published 2024):

What was measured:
[1] = tested on: pCHK1 (S345) in Colo320 DM cells; experiment: CHK1 cellular activity (phospho-CHK1 AlphaLisa); format: cell-based, human; conditions: Homo sapiens, COLO 320DM, 16 h, compound overnight (approximately 16 hours)
Summary of the method: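 Colo320 DM cells (50,000/well, RPMI-1640 with 10% FBS) were treated with compound overnight (~16 h) at 37 °C, final DMSO <0.5%. Lysates were assayed for pCHK1 (S345) by AlphaLisa SureFire, a replication-stress marker downstream of RNR inhibition.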

[2] = biological target: RNR (RNR1:RNR2) (Homo sapiens (Human), UniProt P23921+P31350); experiment: RNR enzyme activity, rapid-fire mass spectrometry (RFMS) assay; format: biochemical; conditions: [RNR] 50 nM, 1:1 RNR1:RNR2, [CDP] 5 μM, [ATP] 1 mM, 37° C., 45 min
Sequence of RNR (RNR1:RNR2) (P23921 whole entry): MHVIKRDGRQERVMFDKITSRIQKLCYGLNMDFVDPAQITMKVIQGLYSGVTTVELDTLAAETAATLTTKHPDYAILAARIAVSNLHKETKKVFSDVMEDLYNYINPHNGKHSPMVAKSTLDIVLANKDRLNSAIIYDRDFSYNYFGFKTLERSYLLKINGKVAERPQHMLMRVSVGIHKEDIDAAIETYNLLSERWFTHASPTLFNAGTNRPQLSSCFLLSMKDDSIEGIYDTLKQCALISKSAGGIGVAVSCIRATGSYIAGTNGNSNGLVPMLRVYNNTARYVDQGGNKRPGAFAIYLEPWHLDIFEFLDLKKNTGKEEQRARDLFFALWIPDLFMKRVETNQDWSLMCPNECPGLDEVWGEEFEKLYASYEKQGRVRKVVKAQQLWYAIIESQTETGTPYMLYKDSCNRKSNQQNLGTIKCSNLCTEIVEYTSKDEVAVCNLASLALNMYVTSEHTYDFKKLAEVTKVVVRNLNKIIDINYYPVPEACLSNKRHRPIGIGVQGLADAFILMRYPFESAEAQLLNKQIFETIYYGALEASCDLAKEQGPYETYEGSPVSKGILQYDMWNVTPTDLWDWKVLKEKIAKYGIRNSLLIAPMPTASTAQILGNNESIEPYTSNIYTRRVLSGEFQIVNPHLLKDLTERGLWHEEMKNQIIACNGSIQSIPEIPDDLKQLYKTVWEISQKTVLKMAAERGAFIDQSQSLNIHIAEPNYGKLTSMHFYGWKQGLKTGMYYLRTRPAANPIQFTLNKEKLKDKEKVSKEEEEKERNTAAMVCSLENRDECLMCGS
Sequence of RNR (RNR1:RNR2) (P31350 whole entry): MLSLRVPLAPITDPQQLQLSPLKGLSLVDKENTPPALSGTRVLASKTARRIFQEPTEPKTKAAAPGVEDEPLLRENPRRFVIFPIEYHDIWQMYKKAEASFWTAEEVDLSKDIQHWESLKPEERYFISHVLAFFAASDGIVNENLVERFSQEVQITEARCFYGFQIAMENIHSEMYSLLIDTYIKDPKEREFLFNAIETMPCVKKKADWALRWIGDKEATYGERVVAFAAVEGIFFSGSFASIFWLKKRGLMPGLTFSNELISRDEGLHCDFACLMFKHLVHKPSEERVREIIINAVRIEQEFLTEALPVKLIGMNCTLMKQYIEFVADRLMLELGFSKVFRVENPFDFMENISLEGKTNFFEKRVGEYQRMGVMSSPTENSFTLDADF
Summary of the method: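 RNR1:RNR2 (1:1, 50 nM final) was preincubated 15 min at room temperature with compound (10 nM–30 μM), then reacted 45 min at 37° C. with 5 μM CDP and 1 mM ATP, without NADPH. Reactions were stopped with 6% formic acid and read by RapidFire mass spectrometry.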

Structure (SMILES) | IC50 [1] [µM] | IC50 [2] [µM]
Cc1ccc(F)c([C@@H](C)[C@H](NS(=O)(=O)c2ccc(Cl)c3c2OCCC3)c2nn[nH]n2)c1C [Example 74, 5-chloro-N-((1S,2R)-2-(6-fluoro-2,3-dimethylphenyl)-1-(2H-tetrazol-5-yl)propyl)chromane-8-sulfonamide] | ≤ 10 | ≤ 0.1
CNc1cc(Cl)ccc1S(=O)(=O)N[C@H](c1nn[nH]n1)[C@H](C)c1c(F)ccc(C)c1C [Example 75, 4-chloro-N-((1S,2R)-2-(6-fluoro-2,3-dimethylpehnyl)-1-(2H-tetrazol-5-yl)propyl)-2-(methylamino)benzenesulfonamide] | 10 to 30 | 0.1 to 1
Cc1ccc(F)c([C@@H](C)[C@H](NS(=O)(=O)c2ccc(Cl)cc2N2CCOCC2)c2nn[nH]n2)c1C [Example 78, 4-chloro-N-((1S,2R)-2-(6-fluoro-2,3-dimethylphenyl)-1-(2H-tetrazol-5-yl)propyl)-2-morpholinobenzenesulfonamide] | 30 to 50 | 0.1 to 1
Cc1ccc(F)c([C@@H](C)[C@H](NS(=O)(=O)c2ccc(Cl)cc2N2CCN(C)CC2)c2nn[nH]n2)c1C [Example 79, 4-chloro-N-((1S,2R)-2-(6-fluoro-2,3-dimethylphenyl)-1-(2H-tetrazol-5-yl)propyl)-2-(4-methylpiperazin-1-yl)benzenesulfonamide] | 50 to 100 | 0.1 to 1
Cc1ccc(F)c([C@@H](C)[C@H](NS(=O)(=O)c2ccc(Cl)cc2N2CCCCC2)c2nn[nH]n2)c1C [Example 80, 4-chloro-N-((1S,2R)-2-(6-fluoro-2,3-dimethylphenyl)-1-(2H-tetrazol-5-yl)propyl)-2-(piperidin-1-yl)benzensulfonamide] | 30 to 50 | 0.1 to 1

Continued, values first:

IC50 [1] [µM] | IC50 [2] [µM] | Structure (SMILES)
50 to 100 | 0.1 to 1 | CNC(=O)c1cc(Cl)ccc1S(=O)(=O)N[C@H](c1nn[nH]n1)[C@H](C)c1c(F)ccc(C)c1C [Example 76, 5-chloro-2-(N-((1S,2R)-2-(6-fluoro-2,3-dimethylphenyl)-1-(2H-tetrazol-5-yl)propyl)sulfamoyl)-N-methylbenzamide]
10 to 30 | ≤ 0.1 | Cc1ccc(F)c([C@@H](C)[C@H](NS(=O)(=O)c2ccc(Cl)cc2N(C)CCO)c2nn[nH]n2)c1C [Example 77, 4-chloro-N-((1S,2R)-2-(6-fluoro-2,3-dimethylphenyl)-1-(2H-tetrazol-5-yl)propyl)-2-((2-hydroxyethyl)(methyl)amino)benzenesulfonamide]
